From patent US11191767B2, “Pharmaceutical composition for stimulating stem cell division and suppressing bacterial virulence” (priority 2017, dated 2021)
Like-named read-outs stand apart in the source and are kept apart here.

Tests used:
[1] = tested on: P. Aeruginosa strains; assay: Antibiotic disc diffusion on Müller-Hinton agar with or without FCCD; assay type: cell-based, Pseudomonas aeruginosa; settings: for sensitivity of bacteria to antibiotic disc (in words): discs added with additional passages, FCCD medium
Protocol: The studies are carried out in vitro by diffusion method on P. Aeruginosa strains indicated in previous experiments. Two rows of plates containing Müller-Hinton agar were prepared in parallel, with a 0.01-0.005% FCCD solution added to the second-row plates. After that, bacteria of the studied strains from a suspension containing 10^8 […] are inoculated on the surface of the agar. To do this, prepare a bacterial suspension corresponding to a concentration of 10^9 […] according to the optic turbidity standard of 10 units diluted with physiological salt solution 10 times (up to 10^8 μl/m1). […] Inoculations on plates with FCCD-free medium are used as controls, as well as media on which discs are not applied. Inoculations are incubated for 48 hours at 37° C. in one passage, then re-inoculation is carried out under similar conditions for the following passages. A total of 4 passages were carried out with controls. The results are taken into account by the diameter of the bacteria inhibition zones. On FCCD-free medium, there are no inhibition zones (an indicator of antibiotic resistance of bacteria), whereas on a medium containing 0.005-0.01% FCCD, a zone of bacterial growth inhibition from 25 to 40 mm in diameter forms around discs (appearance of sensitivity to antibiotic).
Growth inhibition zones were not observed for antibiotics Pseudomonas aeruginosa has genetically determined (initial) antibiotic resistance.

[2] = tested on: P. aeruginosa IMI-2016; assay: MIC of antibiotics by serial dilution with or without FCCD; assay type: cell-based
Protocol: The study is carried out on P. aeruginosa strains given in the previous examples by in vitro serial dilution method using FCCD. Evaluate the decrease in resistance of Pseudomonas aeruginosa strains to amikacin and polymyxin. Prepare two rows of plates with Müller-Hinton nutrient medium: the first row contains various concentrations of the studied antibiotic (amikacin and polymyxin)—31, 62, 125, 250, 500 μg/ml of medium (double dilution). At the same time, prepare the same row of plates, but add FCCD additionally into the medium at a concentration of (0.0001-0.001) %. Inoculate 0.05 ml (drop) of each test strain on the plates from a bacterial suspension containing 10^8 […] according to the optic turbidity standard of 10 units. Müller-Hinton medium without antibiotic and Müller-Hinton medium containing 0.0001% of FCCD without antibiotic are used as controls. Inoculations are incubated at 37° C. for 48 hours. The results are considered by the value of MIC (minimum inhibitory concentration) with the obligatory growth of bacteria on control plates (see table 12).

[3] = tested on: A. baumannii IMI-2016; assay: as above; assay type: cell-based
[4] = tested on: K. pneumoniae IMI-2016; assay: as above; assay type: cell-based
[5] = Pseudomonas aeruginosa, IMI2016, Control (without FCCD), read-out: MIC
[6] = Pseudomonas aeruginosa, IMI2016, with FCCD 0.001 % (first FCCD line), read-out: MIC
[7] = Pseudomonas aeruginosa, IMI2016, with FCCD 0.001 % (second FCCD line), read-out: MIC
[8] = Acinetobacter baumannii, IMI2016, Control (without FCCD), read-out: MIC
[9] = Acinetobacter baumannii, IMI2016, with FCCD 0.001 % (first FCCD line), read-out: MIC
[10] = Acinetobacter baumannii, IMI2016, with FCCD 0.001 % (second FCCD line), read-out: MIC
[11] = Klebsiella pneumoniae, IMI2016, Control (without FCCD), read-out: MIC
[12] = Klebsiella pneumoniae, IMI2016, with FCCD 0,001 % (first FCCD line), read-out: MIC
[13] = Klebsiella pneumoniae, IMI2016, with FCCD 0,001 % (second FCCD line), read-out: MIC
[14] = with FCCD 0.001 % (first FCCD line)
[15] = with FCCD 0.001 % (second FCCD line)
[16] = with FCCD 0,001 % (first FCCD line)
[17] = with FCCD 0,001 % (second FCCD line)

Compound	MIC [2, 5] [µg/mL]	MIC [2, 6] [µg/mL]	MIC [2, 7] [µg/mL]	MIC [3, 8] [µg/mL]	MIC [3, 9] [µg/mL]	MIC [3, 10] [µg/mL]	MIC [4, 11] [µg/mL]	MIC [4, 12] [µg/mL]	MIC [4, 13] [µg/mL]	other results
NCC[C@H](O)C(=O)N[C@@H]1C[C@H](N)[C@@H](O[C@H]2O[C@H](CN)[C@@H](O)[C@H](O)[C@H]2O)[C@H](O)[C@H]1O[C@H]1O[C@H](CO)[C@@H](O)[C@H](N)[C@H]1O [Amikacin]	> 500	15	125	> 500	15	125	> 500	31	62	zone of bacterial growth inhibition around disc (in words) ([1]; FCCD-free medium): no zone of bacterial growth inhibition; zone of bacterial growth inhibition around disc (in words) ([1]; medium with (0.005-0.01)% FCCD): zone of bacterial growth inhibition appears; increase of sensitivity to antibiotic under FCCD ([2]; Pseudomonas aeruginosa): 33 times
CO/N=C(\C(=O)N[C@@H]1C(=O)N2C(C(=O)O)=C(CSc3nc(=O)c(=O)[nH]n3C)CS[C@H]12)c1csc(N)n1 [Ceftriaxone]	> 500	250	500	> 500	250	125	> 500	125	250	–
C[C@@H](O)[C@H]1C(=O)N2C(C(=O)O)=C(SCCN=CN)C[C@H]12 [Imipinem]	–	–	–	–	–	–	–	–	–	MIC ([2]; Control (without FCCD)): >500 µg/mL; MIC [2, 14]: 250 µg/mL; MIC [2, 15]: 125 µg/mL; MIC ([3]; Control (without FCCD)): >500 µg/mL; MIC [3, 14]: 250 µg/mL; MIC [3, 15]: 31 µg/mL; MIC ([4]; Control (without FCCD)): >500 µg/mL; MIC [4, 16]: 250 µg/mL; MIC [4, 17]: 125 µg/mL
C[C@H]1COc2c(N3CCN(C)CC3)c(F)cc3c(=O)c(C(=O)O)cn1c23 [Levofloxacin]	> 500	125	250	> 500	125	62	> 500	125	250	–
CC1(C)S[C@@H]2[C@H](NC(=O)[C@H](N)c3ccc(O)cc3)C(=O)N2[C@H]1C(=O)O [amoxicillin]	–	–	–	–	–	–	–	–	–	sensitivity of bacteria to antibiotic disc (in words) [1]: did not appear sensitive
Cc1nnc(SCC2=C(C(=O)O)N3C(=O)[C@@H](NC(=O)Cn4cnnn4)[C@H]3SC2)s1 [cefazolin]	–	–	–	–	–	–	–	–	–	sensitivity of bacteria to antibiotic disc (in words) [1]: did not appear sensitive
Polymyxin	–	–	–	–	–	–	–	–	–	zone of bacterial growth inhibition around disc (in words) ([1]; FCCD-free medium): no zone of bacterial growth inhibition; zone of bacterial growth inhibition around disc (in words) ([1]; medium with (0.005-0.01)% FCCD): zone of bacterial growth inhibition appears; MIC ([2]; Control (without FCCD)): 250 µg/mL; increase of sensitivity to antibiotic under FCCD ([2]; Pseudomonas aeruginosa): 16 times; MIC [2, 14]: 31 µg/mL; MIC [2, 15]: 125 µg/mL; MIC ([3]; Control (without FCCD)): >500 µg/mL; MIC [3, 14]: 31 µg/mL; MIC [3, 15]: 62 µg/mL; MIC ([4]; Control (without FCCD)): >500 µg/mL; MIC [4, 16]: 62 µg/mL; MIC [4, 17]: 125 µg/mL
